Data taken from US20210330611A1, “THERAPY FOR NEUROLOGICAL DISEASES/DISORDERS” (priority 2020, published 2021).
Where a name gives a salt, the structure may show the parent alone. Read-outs that look alike come from different tables or passages of the source.

Experiments:
[1] = system: fibrin-induced microglia activation; assay: Image-based assay of fibrin-induced microglia activation (HTS and dose response); type: cell-based, rat; conditions: primary microglia HTS, fibrin stimulation; for inhibition at 10 µM: Rattus norvegicus, Microglia, read-out: Fibrin % inhibition
[2] = system: LPS-induced microglia activation; assay: Image-based assay of LPS-induced microglia activation (HTS and dose response); type: cell-based, rat; conditions: for inhibition at 10 µM: Rattus norvegicus, Microglia, read-out: LPS % inhibition
[3] = system: fibrin- and LPS-induced microglia activation; assay: cells; type: cell-based, rat
primary rat microglia [4] = system: primary rat microglia
primary rat microglia [5] = assay: Cell toxicity (dead cells, size <150 μm2) in coated fibrin (cFib) assay; conditions: primary microglia HTS;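 also: share of dead cells sized under 150 µm2 at 10 µM in fibrin-stimulated microglia HTS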
[6] = primary microglia HTS, LPS stimulation, compounds at 10 μM
[7] = classification by fibrin and LPS inhibition, HTS at 10 μM
[8] = fibrin assay, dead cells (size <150 μm2), compounds at 10 μM
[9] = quadrant by fibrin and LPS inhibition, HTS at 10 μM
[10] = fibrin assay, dead cells (size <150 μm2)
[11] = cell size >800 μm2 as marker of activation
[12] = classification by fibrin and LPS inhibition in HTS
[13] = fibrin stimulation, cell size <150 μm2 as marker of toxicity

Compound | inhibition at 10 µM ([1]; compounds at 10 μM) [%] | inhibition at 10 µM [2, 6] [%] | Quadrant (FIG. 5b) [3, 7] | LPS % cell toxicity (primary rat microglia [4]; rat) [%] | Fibrin % cell toxicity (primary rat microglia [5]; [8]) [%] | Quadrant (FIG. 5b) [3, 12] | Fibrin % cell toxicity (primary rat microglia [5]; [13]) [%] | further results
CCOC(=S)SSC(=S)OCC [Dixanthogen] | 4 | 17 | Q4 | 0 | 1 |  |  | 
C[C@H]1C[C@H]2[C@@H]3CCC4=CC(=O)C=C[C@]4(C)[C@@]3(Cl)[C@@H](O)C[C@]2(C)[C@@]1(O)C(=O)CO [Beclomethasone] |  |  |  |  |  |  |  | Fibrin % inhibition ([1]; compounds at 10 μM): −8%; LPS % inhibition [2, 6]: −3%; Quadrant (FIG. 5b) [3, 9]: Q4; LPS % cell toxicity (primary rat microglia [4]): 0%; Fibrin % cell toxicity (primary rat microglia [5]; [10]): 1%
CC(=O)N[C@@H](CC(=O)N[C@@H](CCC(=O)O)C(=O)O)C(=O)O [Spaglumic Acid] |  |  |  | 0 |  | Q4 | 1 | inhibition at 10 µM [1, 11]: -15%; inhibition at 10 µM ([2]; 48 h): 15%
O=C(Nc1ccccc1)c1ccccc1O [Salicylanilide] |  |  |  | 0 |  | Q4 | 1 | inhibition at 10 µM [1, 11]: 1%; inhibition at 10 µM ([2]; 48 h): 13%
O=C1Nc2ccc(Cl)cc2[C@@](C#CC2CC2)(C(F)(F)F)O1 [Efavirenz] | -7 | -5 | Q4 | 0 | 1 |  |  | 
CC(C)Nc1cccnc1N1CCN(C(=O)c2cc3cc(NS(C)(=O)=O)ccc3[nH]2)CC1 [Delavirdine] | -11 | 9 | Q4 | 1 | 1 |  |  | 
CN1C[C@H](C(=O)N[C@]2(C)O[C@@]3(O)[C@@H]4CCCN4C(=O)[C@H](Cc4ccccc4)N3C2=O)C=C2c3cccc4[nH]cc(c34)C[C@H]21 [Ergotamine Tartrate] |  |  | Q4 | 1 | 0 |  |  | Fibrin % inhibition ([1]; compounds at 10 μM, 10 µM): 31%; LPS % inhibition ([2]; primary microglia HTS, LPS stimulation, compounds at 10 μM, 10 µM): 22%
O=S(=O)([O-])CCCS(=O)(=O)[O-].[Na+].[Na+] [Eprodisate Disodium] |  |  | Q4 |  | 1 |  |  | Fibrin % inhibition ([1]; compounds at 10 μM): −3%; LPS % inhibition [2, 6]: 12%; LPS % cell toxicity (primary rat microglia [4]): 0%
O=C(Oc1ccccc1C(=O)O)c1ccccc1O [Salsalate] |  |  |  | 1 |  | Q4 | 1 | inhibition at 10 µM [1, 11]: -22%; inhibition at 10 µM ([2]; 48 h): 14%
NC[C@H]1O[C@H](O[C@H]2[C@H](O[C@@H]3O[C@H](CO)[C@@H](O)[C@H]3O)[C@@H](O)[C@H](N)C[C@@H]2N)[C@H](N)[C@@H](O)[C@@H]1O.O=S(=O)(O)O [Ribostamycin Sulfate] |  |  |  |  |  | Q4 | 0 | Fibrin % inhibition [1, 11]: −16%; LPS % inhibition [2]: 13%; LPS % cell toxicity (primary rat microglia [4]): 0%
CCCCC(=O)O[C@H]1CC[C@H]2[C@@H]3CCc4cc(O)ccc4[C@H]3CC[C@]12C [Estradiol Valerate] | -8 | 16 | Q4 | 1 | 1 |  |  | 
CC(C)(C)NCC(O)COc1cccc2c1CC(O)C(O)C2 (stereo not drawn) [Nadolol] | 107 | 108 |  | 3 |  |  |  | Quadrant (FIG. 5b) [3, 9]: Q2; Fibrin % cell toxicity (primary rat microglia [5]; [10]): 4%
C=C[C@H]1CN2CC[C@H]1C[C@H]2[C@H](OC(=O)OCC)c1ccnc2ccc(OC)cc12 [Quinine Ethyl Carbonate] |  |  |  | 0 |  | Q4 | 0 | inhibition at 10 µM [1, 11]: -21%; inhibition at 10 µM ([2]; 48 h): -11%
CCC(=O)O[C@H]1[C@H](O[C@@H]2[C@@H](C)[C@H](O[C@H]3C[C@@](C)(OC)[C@@H](O)[C@H](C)O3)[C@@H](C)C(=O)O[C@H](CC)[C@@](C)(O)[C@H](O)[C@@H](C)C(=O)[C@H](C)C[C@@]2(C)O)O[C@H](C)C[C@@H]1N(C)C [Erythromycin Propionate] | 23 | 27 | Q4 | 0 | 1 |  |  | 
CCCN1C[C@H](CSC)C[C@@H]2c3cccc4[nH]cc(c34)C[C@H]21 [Pergolide] |  |  |  | 0 |  | Q4 | 0 | inhibition at 10 µM [1, 11]: -18%; inhibition at 10 µM ([2]; 48 h): 16%
Cc1cc(N)c2ccccc2[n+]1CCCCCCCCCC[n+]1c(C)cc(N)c2ccccc21 [Dequadin] | -32 | 2 | Q4 | 0 | 0 |  |  | 
O=C1C(O)=C([C@H]2CC[C@H](c3ccc(Cl)cc3)CC2)C(=O)c2ccccc21 [Atovaquone] | -15 | 13 |  | 0 |  |  |  | Quadrant (FIG. 5b) [3, 9]: Q4; Fibrin % cell toxicity (primary rat microglia [5]; [10]): 0%
CCC[C@H](N[C@@H](C)C(=O)N1[C@H](C(=O)O)C[C@@H]2CCCC[C@@H]21)C(=O)OCC [Perindopril] |  |  |  | 0 |  | Q4 | 0 | inhibition at 10 µM [1, 11]: -27%; inhibition at 10 µM ([2]; 48 h): 18%
CCCCC(CC)COC(=O)CC(C(=O)OCC(CC)CCCC)S(=O)(=O)[O-].[Na+] (stereo not drawn) [Docusate Sodium] |  |  | Q4 |  | 0 |  |  | Fibrin % inhibition ([1]; compounds at 10 μM): −39%; LPS % inhibition [2, 6]: −4%; LPS % cell toxicity (primary rat microglia [4]): 0%
C[C@@H](O[C@H]1OCCN(Cc2n[nH]c(=O)[nH]2)[C@H]1c1ccc(F)cc1)c1cc(C(F)(F)F)cc(C(F)(F)F)c1 [Aprepitant] | 20 | 1 |  | 0 |  |  |  | Quadrant (FIG. 5b) [3, 9]: Q4; Fibrin % cell toxicity (primary rat microglia [5]; [10]): 1%
CCc1oc2ccccc2c1C(=O)c1cc(Br)c(O)c(Br)c1 [Benzbromarone] | 0 | 24 |  | 1 |  |  |  | Quadrant (FIG. 5b) [3, 9]: Q4; Fibrin % cell toxicity (primary rat microglia [5]; [10]): 0%
O=C(O)/C=C\C(=O)O.O=C(O)/C=C\C(=O)O.c1ccc2nc(N3CCNCC3)ccc2c1 [Quipazine Dimaleate, Quipazine Maleate] |  |  |  |  |  | Q4 | 1 | Fibrin % inhibition [1, 11]: −18%; LPS % inhibition [2]: 9%; LPS % cell toxicity (primary rat microglia [4]): 0%
CCN(CC)C(=O)N1CCN(C)CC1 [Diethylcarbamazine] | -26 | 11 | Q4 | 0 | 0 |  |  | 
N[C@@H]1CON=C1O [Cycloserine] | -4 | 19 | Q4 | 0 | 0 |  |  | 
Cc1c(NC(C)C)c(=O)n(-c2ccccc2)n1C [Ramifenazone] |  |  |  | 0 |  | Q4 | 0 | inhibition at 10 µM [1, 11]: -11%; inhibition at 10 µM ([2]; 48 h): 9%
CCCCC(O)c1ccccc1 (stereo not drawn) [Fenipentol] |  |  | Q4 |  | 1 |  |  | Fibrin % inhibition ([1]; compounds at 10 μM): −1%; LPS % inhibition [2, 6]: 25%; LPS % cell toxicity (primary rat microglia [4]): 0%
C=CC1=C(C)c2cc3[nH]c(cc4nc(cc5[nH]c(cc1n2)c(C)c5CCC(=O)O)C(CCC(=O)O)=C4C)c(C)c3C=C [Protoporphyrin Ix] |  |  |  | 0 |  | Q4 | 1 | inhibition at 10 µM [1, 11]: -70%; inhibition at 10 µM ([2]; 48 h): 2%
